In ChEMBL document CHEMBL1201862, “PubChem BioAssay data set” (2004):
One block for each compound: values may come before it. Calls of active or inactive are those of the source.

Experiments:
Protein Tat = molecular target: T1, Protein Tat (Human immunodeficiency virus type 1 group M subtype B (isolate HXB2)(HIV-1), UniProt P04608); type: functional;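 note: tat binding to TAR RNA read out by fluorescence polarization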
T1 sequence (P04608 whole entry): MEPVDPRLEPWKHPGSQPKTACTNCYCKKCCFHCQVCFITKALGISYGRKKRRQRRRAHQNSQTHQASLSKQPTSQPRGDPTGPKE

Aminopeptidase N = molecular target: T2, Aminopeptidase N (Plasmodium falciparum FcB1/Columbia, UniProt O96935); assay: malaria alanyl aminopeptidase activity blockers – biochemical, fluorogenic H-Leu-NHMec substrate, 1536-well (AID 1445); parameters: species or system Plasmodium falciparum 3D7, 3D7
T2 sequence (O96935 whole entry): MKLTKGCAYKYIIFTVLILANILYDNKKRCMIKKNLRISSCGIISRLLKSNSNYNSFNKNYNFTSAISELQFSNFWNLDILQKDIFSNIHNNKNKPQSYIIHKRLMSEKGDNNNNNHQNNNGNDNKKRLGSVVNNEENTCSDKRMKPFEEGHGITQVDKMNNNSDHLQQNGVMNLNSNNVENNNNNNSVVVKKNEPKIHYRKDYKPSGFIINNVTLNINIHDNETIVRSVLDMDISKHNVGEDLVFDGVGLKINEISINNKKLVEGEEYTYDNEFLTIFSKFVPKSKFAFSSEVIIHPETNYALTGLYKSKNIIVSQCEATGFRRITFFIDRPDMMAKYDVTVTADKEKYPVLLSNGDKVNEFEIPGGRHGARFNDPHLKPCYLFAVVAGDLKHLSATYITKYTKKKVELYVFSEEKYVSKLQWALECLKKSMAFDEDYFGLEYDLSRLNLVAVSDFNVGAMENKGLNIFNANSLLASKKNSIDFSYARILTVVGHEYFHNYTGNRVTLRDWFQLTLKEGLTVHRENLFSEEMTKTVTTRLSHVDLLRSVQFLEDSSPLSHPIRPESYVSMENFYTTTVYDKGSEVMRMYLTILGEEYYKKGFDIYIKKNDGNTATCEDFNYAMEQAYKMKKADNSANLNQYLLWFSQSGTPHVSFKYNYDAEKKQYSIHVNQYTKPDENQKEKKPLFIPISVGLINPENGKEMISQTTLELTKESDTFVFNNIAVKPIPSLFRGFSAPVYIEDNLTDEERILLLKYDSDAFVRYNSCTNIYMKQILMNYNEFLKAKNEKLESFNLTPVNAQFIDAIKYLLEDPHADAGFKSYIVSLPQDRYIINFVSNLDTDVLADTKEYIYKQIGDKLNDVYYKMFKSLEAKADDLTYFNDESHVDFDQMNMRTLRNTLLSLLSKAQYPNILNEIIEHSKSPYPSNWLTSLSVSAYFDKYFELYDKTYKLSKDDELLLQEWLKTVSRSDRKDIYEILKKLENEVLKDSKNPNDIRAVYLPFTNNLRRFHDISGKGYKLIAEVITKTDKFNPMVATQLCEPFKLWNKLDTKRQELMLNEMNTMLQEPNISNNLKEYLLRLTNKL

[1] = loss of viability in HepG2 cells – cell-based, CellTiter-Glo, cherry-picked, cytotoxicity control for Shn3 inhibitor project, dose response (AID 624134); type: functional
[2] = reduction of Shn3 3'UTR-driven luciferase in osteoblasts – cell-based, Clone20 osteoblasts, firefly luciferase, cherry-picked, dose response (AID 624132); type: functional;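 note: firefly luciferase luminescence from reporter carrying the Shn3 3'UTR in osteoblasts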
[3] = non-specific 3'UTR reporter inhibition in Clone20-Shn3RL – cell-based, Renilla luciferase, cherry-picked, counter-screen for Shn3 inhibitor project, dose response (AID 624133); type: functional
[4] = Trypanosoma cruzi growth suppression in host cells – NIH3T3 host cells, beta-gal luminescence, confirmation (AID 2044); type: functional, cell-based;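 note: intracellular parasites grown in NIH/3T3 mouse fibroblasts as host cells; luminescent beta-galactosidase reporter signal from transgenic T. cruzi replicating inside host cells; inhibitors lower the luminescence signal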
[5] = NIH3T3 cell viability loss – ATP luminescence, mouse fibroblasts, counter-screen, dose response (AID 2010); type: functional, cell-based;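 note: cells exposed to compound for about 90 hours before reading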
[6] = molecular target: Heat shock protein HSP 90-alpha (Homo sapiens, UniProt P07900); type: functional, organism-based
[7] = molecular target: Nuclear receptor subfamily 5 group A member 2 (Homo sapiens, UniProt O00482); type: functional, cell-based;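 note: HEK293T cells transfected with LRH-1 and a StAR promoter luciferase reporter; potency for inhibitors that lower LRH-1 driven reporter light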
[8] = nonselective StAR promoter luciferase inhibitors – cell-based, luminescence, luciferase reporter, counter-screen for LRH-1 inverse agonist project, dose response (AID 651969); type: functional
Steroidogenic factor 1 = Steroidogenic factor 1 (Homo sapiens, UniProt Q13285); assay: Counterscreen for inverse agonists of the liver receptor homolog-1 (LRH-1; NR5A2): Luminescence-based cell-based high throughput dose response assay to identify inverse agonists of the Steroidogenic Factor 1 Nuclear Receptor (SF1; NR5A1).; type: functional
Paired box protein Pax-8 = Paired box protein Pax-8 (Homo sapiens, UniProt Q06710); assay: PAX8 transcriptional activity inhibition in RMG-I – RMG-I cells, luciferase, cherry-pick, dose response (AID 687027); type: functional, cell-based;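 note: luciferase reporter driven by Pax8 target thyroperoxidase promoter measured by SteadyGlo luminescence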
Caspase-6 = molecular target: T3, Caspase-6 (Homo sapiens, UniProt P55212); assay: inhibition of CASP6 peptide cleavage – biochemical, VEID-R110 fluorescence, cherry-pick, dose response (AID 720632)
T3 sequence (P55212 whole entry): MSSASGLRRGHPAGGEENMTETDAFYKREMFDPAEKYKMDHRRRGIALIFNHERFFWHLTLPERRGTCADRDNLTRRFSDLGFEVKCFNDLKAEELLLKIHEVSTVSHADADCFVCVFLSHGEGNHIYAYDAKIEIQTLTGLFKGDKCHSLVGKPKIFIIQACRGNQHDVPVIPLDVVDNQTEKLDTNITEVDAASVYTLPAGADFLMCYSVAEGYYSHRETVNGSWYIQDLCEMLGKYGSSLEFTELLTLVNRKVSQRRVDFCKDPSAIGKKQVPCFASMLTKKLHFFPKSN

Chain of Nuclear receptor subfamily 5 group A member 2 (O00482 whole entry): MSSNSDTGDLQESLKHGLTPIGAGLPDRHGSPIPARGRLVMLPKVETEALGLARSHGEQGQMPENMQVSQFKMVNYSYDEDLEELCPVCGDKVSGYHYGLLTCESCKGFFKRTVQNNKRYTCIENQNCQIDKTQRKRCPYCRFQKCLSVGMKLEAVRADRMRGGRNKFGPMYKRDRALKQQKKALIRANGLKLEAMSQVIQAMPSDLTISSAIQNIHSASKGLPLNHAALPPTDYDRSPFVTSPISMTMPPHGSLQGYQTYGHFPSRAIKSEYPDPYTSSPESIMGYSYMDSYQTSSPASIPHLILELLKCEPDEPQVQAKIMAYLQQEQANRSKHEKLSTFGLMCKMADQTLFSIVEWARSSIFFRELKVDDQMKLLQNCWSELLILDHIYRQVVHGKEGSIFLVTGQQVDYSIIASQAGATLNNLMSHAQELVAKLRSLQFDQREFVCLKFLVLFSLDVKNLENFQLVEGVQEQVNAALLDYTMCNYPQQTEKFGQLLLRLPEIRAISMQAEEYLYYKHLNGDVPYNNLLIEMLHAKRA
Chain of Steroidogenic factor 1 (Q13285 whole entry): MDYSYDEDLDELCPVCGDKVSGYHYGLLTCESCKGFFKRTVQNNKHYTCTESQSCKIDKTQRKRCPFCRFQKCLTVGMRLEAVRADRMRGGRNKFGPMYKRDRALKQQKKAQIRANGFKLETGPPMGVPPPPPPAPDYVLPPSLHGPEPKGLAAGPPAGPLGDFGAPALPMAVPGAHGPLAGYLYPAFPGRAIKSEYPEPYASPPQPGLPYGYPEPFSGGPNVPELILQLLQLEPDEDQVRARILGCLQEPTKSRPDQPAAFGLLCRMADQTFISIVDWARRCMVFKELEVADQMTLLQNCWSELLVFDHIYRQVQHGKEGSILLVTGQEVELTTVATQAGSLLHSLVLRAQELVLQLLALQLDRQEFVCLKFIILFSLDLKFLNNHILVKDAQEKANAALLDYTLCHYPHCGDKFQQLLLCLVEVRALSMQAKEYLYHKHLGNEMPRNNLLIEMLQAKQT
Chain of Paired box protein Pax-8 (Q06710 whole entry): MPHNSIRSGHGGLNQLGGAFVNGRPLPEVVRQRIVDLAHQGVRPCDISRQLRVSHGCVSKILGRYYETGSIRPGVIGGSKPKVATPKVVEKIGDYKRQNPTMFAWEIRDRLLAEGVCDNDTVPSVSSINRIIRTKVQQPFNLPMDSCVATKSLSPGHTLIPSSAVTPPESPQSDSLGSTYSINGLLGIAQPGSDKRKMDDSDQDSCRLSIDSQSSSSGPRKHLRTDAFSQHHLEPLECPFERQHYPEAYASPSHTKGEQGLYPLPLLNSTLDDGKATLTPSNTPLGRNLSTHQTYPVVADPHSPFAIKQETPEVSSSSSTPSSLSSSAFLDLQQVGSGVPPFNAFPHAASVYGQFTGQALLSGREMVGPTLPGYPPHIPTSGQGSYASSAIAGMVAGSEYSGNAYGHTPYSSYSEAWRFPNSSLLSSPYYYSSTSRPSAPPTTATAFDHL

Compound: NS(=O)(=O)c1ccc(CCNCc2cc(Cl)ccc2OCc2ccccc2)cc1
- AC50 [1]: 46.9 µM (active)
- AC50 [2]: 4.46 µM (active)
- AC50 [3]: 7.31 µM (active)

Compound: CCC(C)(C)n1nnnc1C(c1cccnc1)N1CCC(Cc2ccccc2)CC1 (stereo unspecified)
- EC50 [4]: 0.151 µM (active)
- EC50 [5]: 49 µM (active)
- AC50 [6]: 1.09 µM (active)

Compound: Cc1cc(C)c2nc(NC(=O)c3ccc([N+](=O)[O-])o3)sc2c1
- IC50 [7]: 35.9 µM (inactive)
- IC50 [8]: 35.9 µM (inactive)
- IC50 (Steroidogenic factor 1): 0.148 µM (active)

Compound: CC(C)OC(=O)c1ccc(NCc2cc(O)ccc2O)cc1
- AC50 [1]: 7.81 µM (active)
- AC50 [2]: 1.9 µM (active)
- AC50 [3]: 5.28 µM (active)
- AC50 [6]: 25 µM (active)

Compound: Cc1cc(OCC(=O)N2CCC(O)CC2)c2c(C)cc(=O)oc2c1
- IC50 [7]: 19 µM (inactive)
- IC50 [8]: 35.9 µM (inactive)
- IC50 (Steroidogenic factor 1): 11.2 µM (inactive)

Compound: Cc1cccc(N2CCN(S(=O)(=O)c3c(C)noc3/C=C/N(C)C)CC2)c1C
- AC50 [6]: 4.74 µM (active)

Compound: CCCCCCN1C[C@@H](n2cc(-c3ccc(F)cc3)nn2)[C@H](O)C[C@@H]1c1ccc(Cl)cc1
- AC50 [1]: 41.6 µM (active)
- AC50 [2]: 12.5 µM (active)
- AC50 [3]: 21.5 µM (active)
- AC50 (Paired box protein Pax-8): 9.71 µM (active)

The remaining lines, values ahead:

- IC50 (Protein Tat): > 100 µM (active)
Compound: CCOC(=O)c1nn(-c2ccc(Cl)cc2Cl)c(=N)c(C#N)c1C

- IC50 (Aminopeptidase N): 103 µM (active)
Compound: C=CCn1c(CNC(=O)c2ccccc2F)nnc1SCC(=O)NC(C)c1ccccc1 (stereo unspecified)

- IC50 (Aminopeptidase N): 24.3 µM (active)
Compound: Cc1ccccc1S(=O)(=O)Nc1ncnc2scc(-c3ccccc3)c12

- IC50 (Aminopeptidase N): 46.5 µM (active)
Compound: O=C(NN1C(=O)c2ccccc2NC1c1ccoc1)c1ccccc1 (stereo unspecified)

- AC50 (Caspase-6): 42.2 µM (active)
Compound: O=C(COC(=O)c1ccc([N+](=O)[O-])o1)NCCc1ccccc1
